Laboratory results published in patent US20230295197A1, “STAT5 and STAT6 Degraders and Uses Thereof” (REGENTS OF THE UNIVERSITY OF MICHICAN, priority 2022, published 2023).
Like-named read-outs stand apart in the source and are kept apart here.

Target: T1, STAT6 (Homo sapiens, UniProt P42226)
T1 construct: endogenous in cells; host or cells: MOLM-16, KU-812, SKNO1, MB231, L1236
T1 sequence (P42226 1-847): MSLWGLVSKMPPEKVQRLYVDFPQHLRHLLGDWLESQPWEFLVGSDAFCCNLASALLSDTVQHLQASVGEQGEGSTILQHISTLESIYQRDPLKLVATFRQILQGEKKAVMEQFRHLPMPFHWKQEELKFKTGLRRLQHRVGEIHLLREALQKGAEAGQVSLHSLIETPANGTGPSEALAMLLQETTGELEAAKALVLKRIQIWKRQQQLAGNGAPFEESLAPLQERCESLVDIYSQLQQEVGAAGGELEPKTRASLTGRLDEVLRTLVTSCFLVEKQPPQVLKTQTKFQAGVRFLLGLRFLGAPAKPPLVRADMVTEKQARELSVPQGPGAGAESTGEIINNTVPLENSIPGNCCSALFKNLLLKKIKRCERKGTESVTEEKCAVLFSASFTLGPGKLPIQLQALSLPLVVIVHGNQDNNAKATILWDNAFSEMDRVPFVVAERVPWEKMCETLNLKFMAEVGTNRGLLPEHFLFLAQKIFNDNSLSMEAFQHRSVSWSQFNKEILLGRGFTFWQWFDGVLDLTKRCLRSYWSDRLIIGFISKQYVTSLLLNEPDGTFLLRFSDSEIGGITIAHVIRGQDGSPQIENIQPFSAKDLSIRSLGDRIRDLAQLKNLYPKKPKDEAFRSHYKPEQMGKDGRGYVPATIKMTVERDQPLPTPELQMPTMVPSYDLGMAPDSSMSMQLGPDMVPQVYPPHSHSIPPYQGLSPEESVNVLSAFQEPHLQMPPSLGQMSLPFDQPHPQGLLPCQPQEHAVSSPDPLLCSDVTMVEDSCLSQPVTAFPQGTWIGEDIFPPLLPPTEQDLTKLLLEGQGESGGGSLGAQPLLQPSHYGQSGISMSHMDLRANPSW
Assay: Immunoblotting (Western blot) analysis of STAT6 degradation efficiency of degraders in treated cells
Assay type: cell-based
Summary of the method: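 Cells (~1 million per point) treated with compounds at indicated concentrations and times, lysed in RIPA with protease/phosphatase inhibitors; 20-40 μg protein run on SDS-PAGE and blotted to PVDF. STAT6 or STAT5 rabbit mAbs with GAPDH loading control, IRDye secondaries; near-infrared fluorescence scan, band intensity quantified.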

[1] = MOLM-16 cells, class symbols, read-out: DC50 S6 MOLM-16
[2] = L1236 cells, read-out: DC50 S6 L1236

Row | DC50 (MOLM-16 cells, numeric bound, read-out: DC50 S6 MOLM-16) | Compound | DC50 [1] | DC50 [2] | DC50 (MB231 cells, read-out: DC50 S6 MB231)
1 |  | CC(C)(C)c1ccc(C[C@H](NC(=O)c2cc3cc(C(F)(F)P(=O)(O)O)ccc3s2)C(=O)N2C[C@@H](OCCCCCCC#Cc3cccc4c3CN(C3CCC(=O)NC3=O)C4=O)C[C@H]2C(=O)N2CCO[C@H](c3ccccc3)C2)cc1 (stereo partly drawn) [Compound 589, ((2-(((2S)-3-(4-(tert-butyl)phenyl)-1-((2S,4S)-4-((8-(2-(2,6-dioxopiperidin-3-yl)-1-oxoisoindolin-4-yl)oct-7-yn-1-yl)oxy)-2-((R)-2-phenylmorpholine-4-carbonyl)pyrrolidin-1-yl)-1-oxopropan-2-yl)carbamoyl)benzo[b]thiophen-5-yl)difluoromethyl)phosphonic acid] | 1 to 10 µM |  | 
2 |  | Cc1ncsc1-c1ccc([C@H](CC(=O)NCCCCCCC(=O)N[C@H]2C[C@@H](C(=O)N3CCO[C@H](c4ccccc4)C3)N(C(=O)[C@@H](NC(=O)c3cc4cc(C(F)(F)P(=O)(O)O)ccc4s3)C(C)(C)C)C2)NC(=O)[C@@H]2C[C@@H](O)CN2C(=O)[C@@H](NC(=O)C2(F)CC2)C(C)(C)C)cc1 [Compound 569, (difluoro(2-(((S)-1-((2S,4S)-4-(7-((S)-3-((2S,4R)-1-((S)-2-(1-fluorocyclopropane-1-carboxamido)-3,3-dimethylbutanoyl)-4-hydroxypyrrolidine-2-carboxamido)-3-(4-(4-methylthiazol-5-yl)phenyl)propanamido)heptanamido)-2-((R)-2-phenylmorpholine-4-carbonyl)pyrrolidin-1-yl)-3,3-dimethyl-1-oxobutan-2-yl)carbamoyl)benzo[b]thiophen-5-yl)methyl)phosphonic acid] | > 10 µM |  | 
3 |  | Cc1ncsc1-c1ccc(CNC(=O)[C@@H]2C[C@@H](O)CN2C(=O)[C@@H](NC(=O)CCCCCCCNC(=O)CO[C@@H]2C[C@@H](C(=O)N(C)c3ccc(Br)cc3)N(C(=O)[C@@H](NC(=O)c3cc4cc(C(F)(F)P(=O)(O)O)ccc4s3)C(C)(C)C)C2)C(C)(C)C)cc1 [Compound 419, ((2-(((S)-1-((2S,4R)-2-((4-bromophenyl)(methyl)carbamoyl)-4-(2-((8-(((S)-1-((2S,4R)-4-hydroxy-2-((4-(4-methylthiazol-5-yl)benzyl)carbamoyl)pyrrolidin-1-yl)-3,3-dimethyl-1-oxobutan-2-yl)amino)-8-oxooctyl)amino)-2-oxoethoxy)pyrrolidin-1-yl)-3,3-dimethyl-1-oxobutan-2-yl)carbamoyl)benzo[b]thiophen-5-yl)difluoromethyl)phosphonic acid] |  | > 10 µM | > 10 µM
4 |  | Cc1cc([C@H](C(=O)N2C[C@H](O)C[C@H]2C(=O)N[C@@H](CC(=O)NCCCCCCNC(=O)CO[C@@H]2C[C@@H](C(=O)N(C)c3ccc(Br)cc3)N(C(=O)[C@@H](NC(=O)c3cc4cc(C(F)(F)P(=O)(O)O)ccc4s3)C(C)(C)C)C2)c2ccc(-c3scnc3C)cc2)C(C)C)on1 [Compound 422, ((2-(((S)-1-((2S,4R)-2-((4-bromophenyl)(methyl)carbamoyl)-4-(2-((6-((S)-3-((2S,4R)-4-hydroxy-1-((R)-3-methyl-2-(3-methylisoxazol-5-yl)butanoyl)pyrrolidine-2-carboxamido)-3-(4-(4-methylthiazol-5-yl)phenyl)propanamido)hexyl)amino)-2-oxoethoxy)pyrrolidin-1-yl)-3,3-dimethyl-1-oxobutan-2-yl)carbamoyl)benzo[b]thiophen-5-yl)difluoromethyl)phosphonic acid] | > 10 µM |  | 
5 |  | CC(C)(C)[C@H](NC(=O)c1cc2cc(C(F)(F)P(=O)(O)O)ccc2s1)C(=O)N1C[C@@H](OCCCCCC(=O)N2Cc3cc4c(cc3C2)C(=O)N(C2CCC(=O)NC2=O)C4)C[C@H]1C(=O)N1CCO[C@H](c2ccccc2)C1 (stereo partly drawn) [Compound 590, ((2-(((2S)-1-((2S,4S)-4-((6-(6-(2,6-dioxopiperidin-3-yl)-5-oxo-3,5,6,7-tetrahydropyrrolo[3,4-f]isoindol-2(1H)-yl)-6-oxohexyl)oxy)-2-((R)-2-phenylmorpholine-4-carbonyl)pyrrolidin-1-yl)-3,3-dimethyl-1-oxobutan-2-yl)carbamoyl)benzo[b]thiophen-5-yl)difluoromethyl)phosphonic acid] | 1 to 10 µM |  | 
6 |  | Cc1ncsc1-c1ccc([C@H](C)NC(=O)[C@@H]2C[C@@H](O)CN2C(=O)[C@@H](NC(=O)CCCCCNC(=O)CO[C@H]2C[C@@H](C(=O)N3CCC[C@H](c4ccccc4)C3)N(C(=O)[C@@H](NC(=O)c3cc4cc(C(F)(F)P(=O)(O)O)ccc4s3)C(C)(C)C)C2)C(C)(C)C)cc1 [Compound 438, (difluoro(2-(((S)-1-((2S,4S)-4-(2-((6-(((S)-1-((2S,4R)-4-hydroxy-2-(((S)-1-(4-(4-methylthiazol-5-yl)phenyl)ethyl)carbamoyl)pyrrolidin-1-yl)-3,3-dimethyl-1-oxobutan-2-yl)amino)-6-oxohexyl)amino)-2-oxoethoxy)-2-((R)-3-phenylpiperidine-1-carbonyl)pyrrolidin-1-yl)-3,3-dimethyl-1-oxobutan-2-yl)carbamoyl)benzo[b]thiophen-5-yl)methyl)phosphonic acid] | > 10 µM | > 10 µM | 
7 |  | Cc1ncsc1-c1ccc([C@H](C)NC(=O)[C@@H]2C[C@@H](O)CN2C(=O)[C@@H](NC(=O)CCCCCCCCCNC(=O)CO[C@H]2C[C@@H](C(=O)N3CCC[C@H](c4ccccc4)C3)N(C(=O)[C@@H](NC(=O)c3cc4cc(C(F)(F)P(=O)(O)O)ccc4s3)C(C)(C)C)C2)C(C)(C)C)cc1 [Compound 442, (difluoro(2-(((S)-1-((2S,4S)-4-(2-((10-(((S)-1-((2S,4R)-4-hydroxy-2-(((S)-1-(4-(4-methylthiazol-5-yl)phenyl)ethyl)carbamoyl)pyrrolidin-1-yl)-3,3-dimethyl-1-oxobutan-2-yl)amino)-10-oxodecyl)amino)-2-oxoethoxy)-2-((R)-3-phenylpiperidine-1-carbonyl)pyrrolidin-1-yl)-3,3-dimethyl-1-oxobutan-2-yl)carbamoyl)benzo[b]thiophen-5-yl)methyl)phosphonic acid] | > 10 µM | > 10 µM | 
8 |  | Cc1ncsc1-c1ccc([C@H](C)NC(=O)[C@@H]2C[C@@H](O)CN2C(=O)[C@@H](NC(=O)CCCNC(=O)CC(=O)N2CCN(C(=O)[C@@H](NC(=O)c3cc4cc(C(F)(F)P(=O)(O)O)ccc4s3)C(C)(C)C)[C@H](C(=O)N3CCO[C@H](c4ccccc4)C3)C2)C(C)(C)C)cc1 [Compound 445, (difluoro(2-(((S)-1-((S)-4-(3-((4-(((S)-1-((2S,4R)-4-hydroxy-2-(((S)-1-(4-(4-methylthiazol-5-yl)phenyl)ethyl)carbamoyl)pyrrolidin-1-yl)-3,3-dimethyl-1-oxobutan-2-yl)amino)-4-oxobutyl)amino)-3-oxopropanoyl)-2-((R)-2-phenylmorpholine-4-carbonyl)piperazin-1-yl)-3,3-dimethyl-1-oxobutan-2-yl)carbamoyl)benzo[b]thiophen-5-yl)methyl)phosphonic acid] | > 10 µM | > 10 µM | 
9 | > 0.3 µM | CC(C)(C)[C@H](NC(=O)c1cc2cc(C(F)(F)P(=O)(O)O)ccc2s1)C(=O)N1CCN(C(=O)CCCCCC#Cc2ccc3c(c2)CN(C2CCC(=O)NC2=O)C3=O)C[C@H]1C(=O)N1CCO[C@H](c2ccccc2)C1 (stereo partly drawn) [Compound 596, ((2-(((2S)-1-((2S)-4-(8-(2-(2,6-dioxopiperidin-3-yl)-1-oxoisoindolin-5-yl)oct-7-ynoyl)-2-((R)-2-phenylmorpholine-4-carbonyl)piperazin-1-yl)-3,3-dimethyl-1-oxobutan-2-yl)carbamoyl)benzo[b]thiophen-5-yl)difluoromethyl)phosphonic acid] |  |  | 
